A word on the inhibition: it is the share of the control response that was lost under treatment.

Test [1] concerns the target T1, Muscarinic acetylcholine receptor M1 (Homo sapiens) (UniProt P11229).
T1 sequence (whole entry): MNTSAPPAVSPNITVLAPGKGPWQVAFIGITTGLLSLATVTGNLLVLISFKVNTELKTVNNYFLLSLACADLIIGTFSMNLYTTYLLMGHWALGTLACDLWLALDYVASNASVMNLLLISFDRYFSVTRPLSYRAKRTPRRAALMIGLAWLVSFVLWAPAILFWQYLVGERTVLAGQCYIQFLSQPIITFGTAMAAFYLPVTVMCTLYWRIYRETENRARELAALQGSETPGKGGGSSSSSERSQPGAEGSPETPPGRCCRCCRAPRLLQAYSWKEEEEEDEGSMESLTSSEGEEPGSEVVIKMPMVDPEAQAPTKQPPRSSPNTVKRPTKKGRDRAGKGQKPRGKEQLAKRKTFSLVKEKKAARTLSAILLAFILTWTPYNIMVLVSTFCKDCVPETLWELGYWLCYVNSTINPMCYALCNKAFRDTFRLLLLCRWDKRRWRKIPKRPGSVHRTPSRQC
Put plainly: Ability to displace [3H]N-methylscopolamine binding to M1 human recombinant muscarinic receptor in CHO cells at concentration 1 uM. It is filed as cell-based.

The target of test [2] is T2, Muscarinic acetylcholine receptor M2 (Homo sapiens) (UniProt P08172).
T2 sequence (whole entry): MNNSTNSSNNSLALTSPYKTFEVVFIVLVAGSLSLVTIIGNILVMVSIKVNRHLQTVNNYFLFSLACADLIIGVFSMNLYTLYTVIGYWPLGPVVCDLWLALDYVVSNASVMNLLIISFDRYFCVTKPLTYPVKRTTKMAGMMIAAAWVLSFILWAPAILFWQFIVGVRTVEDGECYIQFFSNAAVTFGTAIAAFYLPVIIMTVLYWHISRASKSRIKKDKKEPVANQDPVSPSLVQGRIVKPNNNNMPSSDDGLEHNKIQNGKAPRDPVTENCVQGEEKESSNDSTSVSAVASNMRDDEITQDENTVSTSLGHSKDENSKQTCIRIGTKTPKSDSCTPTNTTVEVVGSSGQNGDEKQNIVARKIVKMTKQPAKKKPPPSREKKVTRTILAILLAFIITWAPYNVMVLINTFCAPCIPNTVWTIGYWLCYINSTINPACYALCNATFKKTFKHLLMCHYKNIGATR
Put plainly: Ability to displace [3H]N-methylscopolamine binding to M2 human recombinant muscarinic receptor in CHO cells at concentration 1 uM. It is filed as cell-based.

Test [3] has as its target T1, Muscarinic acetylcholine receptor M1 (Homo sapiens). Put plainly: Ability to displace [3H]N-methylscopolamine binding to M1 human recombinant muscarinic receptor in CHO cells at concentration 10 uM. It is filed as cell-based.
Test [4] has as its target T2, Muscarinic acetylcholine receptor M2 (Homo sapiens). Put plainly: Ability to displace [3H]N-methylscopolamine binding to M2 human recombinant muscarinic receptor in CHO cells at concentration 10 uM. It is filed as cell-based.
Test [5] has as its target Neuronal acetylcholine receptor (Rattus norvegicus) (UniProt P04757+P09483+P12389+P12390+P12392+P43144+Q9JLB5+P12391+P43143+P20420+Q05941). Put plainly: Ability to displace [3H]cytisine binding to nicotinic receptor in synaptic membrane fractions from rat cerebral cortices at a concentration of 10 uM. It is filed as cell membranes.
Test [6] concerns the target Muscarinic acetylcholine receptor M3 (Homo sapiens) (UniProt P20309). Put plainly: Ability to displace [3H]N-methylscopolamine binding to M3 human recombinant muscarinic receptor in CHO cells at concentration 1 uM. It is filed as cell-based.
Test [7] shares this target. Put plainly: Ability to displace [3H]N-methylscopolamine binding to M3 human recombinant muscarinic receptor in CHO cells at concentration 10 uM. It is filed as cell-based.

Chain of Muscarinic acetylcholine receptor M3 (Homo sapiens) (P20309 whole entry, looked up): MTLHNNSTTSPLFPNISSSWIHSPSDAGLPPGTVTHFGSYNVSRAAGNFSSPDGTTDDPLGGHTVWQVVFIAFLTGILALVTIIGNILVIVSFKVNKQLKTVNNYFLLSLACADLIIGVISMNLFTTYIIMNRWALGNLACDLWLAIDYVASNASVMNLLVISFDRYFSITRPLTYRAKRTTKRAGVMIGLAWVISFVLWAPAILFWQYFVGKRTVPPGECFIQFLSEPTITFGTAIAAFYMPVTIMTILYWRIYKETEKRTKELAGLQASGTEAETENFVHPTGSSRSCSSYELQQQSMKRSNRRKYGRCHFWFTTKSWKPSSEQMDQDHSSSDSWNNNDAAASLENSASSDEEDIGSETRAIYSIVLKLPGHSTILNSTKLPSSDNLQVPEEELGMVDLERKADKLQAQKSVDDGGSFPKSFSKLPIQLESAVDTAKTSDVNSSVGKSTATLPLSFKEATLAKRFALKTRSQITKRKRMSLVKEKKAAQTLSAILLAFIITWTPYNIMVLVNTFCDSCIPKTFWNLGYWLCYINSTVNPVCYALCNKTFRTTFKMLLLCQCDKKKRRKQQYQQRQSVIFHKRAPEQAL

As for `Cc1ccc(-c2cc(/C=C3/CN4CCC3CC4)on2)cc1`, the inhibition in test [1] was found to be 7%; in test [2], 2%; in test [3], 7%; in test [4] it was 14%; in test [5] it was 70%; in test [6] it was 3%. Also, the inhibition in test [7] is 15%.
As to `CC(C)(C)OC(=O)Nc1ccc(-c2cc(/C=C3/CN4CCC3C4)on2)cc1` (stereo unspecified), the inhibition was 0% in test [1]; 3% in test [2]; 58% in test [3]; 23% in test [4]; 74% in test [5]; 26% in test [6]. In addition, the inhibition in test [7] stood at 35%.
Consider `CC(C)(C)OC(=O)Nc1ccc(-c2cc(/C=C3\CN4CCC3C4)on2)cc1` (stereo unspecified), for which the inhibition worked out at 3% in test [1]; 10% in test [2]; 53% in test [3]; 53% in test [4]; 75% in test [5]; 0% in test [6]. The inhibition in test [7] was determined as 53%.
Consider `Oc1ccc(-c2cc(/C=C3/CN4CCC3C4)on2)cc1` (stereo unspecified), for which the inhibition in test [1] worked out at 0%; in test [2], 6%; in test [3], 26%; in test [4], 3%; in test [5], 81%; in test [6], 0%. In test [7], the inhibition amounted to 11%.
Consider `Oc1ccc(-c2cc(/C=C3\CN4CCC3C4)on2)cc1O` (stereo unspecified), for which the inhibition in test [1], in test [2], in test [3], in test [4], in test [6] and in test [7] was 0% throughout.
Regarding `Fc1ccc(-c2cc(/C=C3/CN4CCC3CC4)on2)cc1`, the inhibition in test [1] was found to be 0%; in test [3], 6%; in test [5], 19%.
Turning to `Fc1ccc(-c2cc(/C=C3\CN4CCC3CC4)on2)cc1`, the inhibition in test [1] was 0%; in test [2] it was 13%; in test [3], 0%; in test [4], 22%; in test [5], 19%; in test [6], 0%. For the same compound, in test [7], the inhibition came out at 10%.
For the compound `Oc1ccc(-c2cc(/C=C3\CN4CCC3C4)on2)cc1` (stereo unspecified), the inhibition in test [1] stood at 0%; in test [2] it was 1%; in test [3], 0%; in test [4], 10%; in test [5] it was 36%; in test [6], 10%. For the same compound, the inhibition in test [7] amounted to 20%.
As to `Oc1ccc(-c2cc(/C=C3\CN4CCC3CC4)on2)cc1`, the inhibition in test [1] worked out at 0%; in test [2] it was 0%; in test [3], 2%; in test [4], 7%; in test [5], 72%; in test [6] it was 0%. Moreover, in test [7], the inhibition was 0%.
For `Nc1ccc(-c2cc(/C=C3/CN4CCC3C4)on2)cc1` (stereo unspecified), the inhibition in test [1] was 7%; in test [2] it was 1%; in test [3] it was 44%; in test [4], 4%; in test [5] it was 49%; in test [6], 0%. In test [7], the inhibition was 10%.
Take `COc1ccc(COc2ccc(-c3cc(/C=C4/CN5CCC4C5)on3)cc2)cc1` (stereo unspecified): the inhibition in test [1] was found to be 39%; in test [3], 66%; in test [5] it was 0%.
On to `COc1ccc(-c2cc(/C=C3\CN4CCC3CC4)on2)cc1OC`, for which the inhibition came to 3% in test [1]; 14% in test [2]; 22% in test [3]; 22% in test [4]; 58% in test [5]; 0% in test [6]. Moreover, the inhibition in test [7] is 7%.
On to `C(=C1/CN2CCC1CC2)/c1cc(-c2ccccc2)no1`, for which the inhibition turned out to be 0% in test [1]; 3% in test [2]; 13% in test [3]; 26% in test [4]; 5% in test [6]; 17% in test [7].

(Values after ChEMBL document CHEMBL1131993, “Binding affinities of 3-(3-phenylisoxazol-5-yl)methylidene-1-azabicycles to acetylcholine receptors” (Bioorg Med Chem Lett, 1999).)
